Results reported in paper doi:10.1101/2024.07.04.602053v1, “Evidence for low affinity of GABA at the vesicular monoamine transporter VMAT2 – implications for transmitter co-release from dopamine neurons” (biorxiv, 2024).

Target: T1, human VMAT2-eGFP (HEK-293-VMAT2:eGFP) (Homo sapiens, UniProt Q05940)
T1 construct: gene SLC18A2
Experiment: inhibition of [3H]dopamine uptake, digitonin-permeabilized cells
Assay type: cell-based

T1 sequence (Q05940 whole entry): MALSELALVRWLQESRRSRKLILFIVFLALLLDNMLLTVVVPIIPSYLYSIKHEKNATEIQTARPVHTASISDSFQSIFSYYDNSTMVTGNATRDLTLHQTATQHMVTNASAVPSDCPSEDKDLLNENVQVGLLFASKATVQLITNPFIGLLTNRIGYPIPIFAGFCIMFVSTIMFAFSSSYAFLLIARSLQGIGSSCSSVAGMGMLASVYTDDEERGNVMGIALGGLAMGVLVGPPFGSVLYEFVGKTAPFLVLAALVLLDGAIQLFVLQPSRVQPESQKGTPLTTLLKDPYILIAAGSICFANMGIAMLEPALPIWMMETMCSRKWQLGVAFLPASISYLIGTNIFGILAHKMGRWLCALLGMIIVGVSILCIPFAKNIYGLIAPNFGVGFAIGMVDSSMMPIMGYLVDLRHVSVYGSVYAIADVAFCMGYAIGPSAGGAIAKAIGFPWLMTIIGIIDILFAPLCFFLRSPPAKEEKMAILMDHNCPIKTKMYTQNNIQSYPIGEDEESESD

Row | SMILES | IC50
1 | NCCc1ccc(O)c(O)c1 [dopamine] | 4900 nM
2 | COc1cc2c(cc1OC)C1CC(=O)C(CC(C)C)CN1CC2 (centres unmarked) [tetrabenazine] | 28.8 nM
